Test results from patent publication US6001810A, “Methods for treating retroviral infection” (Eli Lilly and Company, priority 1990, dated 1999).
In brackets after ≈: the same amount, converted by molar mass. Values belong to the compound of their own block, whether it stands above or below them. Non-standard residues stand in square brackets, D forms with d. Residues, ends and D or L forms follow the SMILES beside them. *: point of attachment. Phe(4-NH2) = Nc1ccc(C[C@H](N)C(=O)O)cc1; 1Nal = N[C@@H](Cc1cccc2ccccc12)C(=O)O; Sta = CC(C)C[C@H](N)[C@@H](O)CC(=O)O; Isovaleryl = CC(C)CC(=O)*

Legend:
Mo-MuLV = assay: Moloney Murine Leukemia Virus Assay, CPE inhibition in SC-1/XC cells; format: cell-based; set-up: key: 4+(>90%); 3+(>60%); 2+(>40%); 1+(>20%); -(Negative)
Procedure: (§1) About 3 to 5×10^3 SC-1 cells (available from the American Type Culture Collection, Rockville, Md. under the accession number ATCC CRL-1404) per well of a 96-well microtiter plate were seeded in minimal essential medium supplemented with 5% fetal bovine serum, penicillin (150 U/ml), Streptomycin (150 μg/ml) and polybrene (2 μg/ml), then infected with Mo-MuLV (Multiplicity of Infection=10 PFU/cell) the next day. The virus was allowed to adsorb to the cells for 1 hour, then medium containing serial dilutions of P-7, P-9 or medium alone was added to the cells. Pepstatin A ([…]-Val-Val-Statine-Ala-Statine) and AZT (3'-Azido-3'-deoxythymidine) were also added as controls. After incubation for 5 days (when cells were confluent) the SC-1 cells were UV irradiated for 10 seconds and 5 to 8×10^4 XC cells (ATCC CCL-165) per well were added. Generally, about two additional days of incubation were required to obtain full virus-induced cytopathic effect.

MLV = MLV XC Plaque Reduction Assay - Virus Yield; format: cell-based, Murine Leukemia Virus
Procedure: as §1
The assay described above was also preferred to determine the virus yield. In this experiment, the supernatents were removed from the SC-1 cells four days after infection and tested for MLV titers, using the XC-plaque assay as previously described.

CEM cells = format: cell-based
Procedure: (§2) Quantitative evaluation of the viral inhibition were performed on the T-cell lymphoblastoid cell lines MT-2 (Harada et al., 1985, Science 229:563-566) and CEM (Nara and Fischinger, 1988, Nature 332:469-470). The cells were infected with the HTLV-IIIB strain of HIV-1 from the supernatant fluid of infected human T-lymphocyte cell line H9 (Popovic, M. et al., 1984, Science 224:497-500). Each of these three cell lines are publicly available from the National Institutes of Health (NIH) AIDS Research and Reference Reagent Program. The H9/HTLC-IIIB cell line is available under catalogue number 231, while CEM cell line is available under catalogue number 117 and the MT-2 cell line is available under the catalogue number 237. MT-2 and CEM cells were grown in RPMI 1640 medium supplemented with 10% (v/v) fetal calf serum, 100 U/ml penicillin, 100 μg/ml streptomycin and 25 mM HEPEs buffer. H9 cells were grown in the same medium except 20% fetal calf serum was used. The peptides were diluted in the medium used for MT-2 and CEM cells. Cell cultures were maintained in disposable tissue culture labware at 37° C. in a humidified atmosphere of 5% CO2 in air.
(§3) The inhibitors were dissolved in DMSO at 40 mg/ml or sterile water at 2 mg/ml, then dilutions were made in medium. The dilutions were added to micro-titer plates in 100 μl/well aliquots so that the high drug concentration for each screen was 100 μg/ml after the addition of cells to the well.
(§4) Susceptible MT-2 and CEM cells were grown and the cell population determined by a trypan blue viable cell count. The desired total number of cells were placed in a sterile, disposable 50 ml conical centrifuge tube and virus was added to give an MOI (Multiplicity of Infection) of 0.03 TCID50 /cell (Tissue Culture Infectious Dose) on MT-2 cells and approximately 0.12 TCID50 /cell on CEM cells. Fresh medium was added to adjust the cell density to 1×10^5 cells/ml, then the virus-cell suspension was incubated at 37° C. for 1 to 2 hours until plating. Uninfected controls cell were prepared in the same manner but without the addition of virus. Infected and uninfected cells were added to plates in 100 μl/well aliquots to give a starting cell number of 1×10^4 cells/well. The plates were incubated for seven days in a humidified atmosphere of 5% CO2 in air.
Reagents for colorimetric evaluation of cell viability were prepared by mixing the tetrazolium reagent, XTT, and phenazine methosulfate (PMS) to final concentrations of 200 μg/ml and 0.02 mM, respectively. Fifty microliters of the XTT-PMS solution was added to each well of the microtiter plates, then the plates were incubated in the CO2 incubator for another four hours. The lids were removed from the plates and replaced with adhesive plate sealers. The plates were read with the sealers in place in a Vmax Plate Reader® at 450 nm and 650 nm. The cytopathic effect (CPE) and percentage of cell viability were then calculated.
The activity and cytotoxicity of several other peptides were also assayed in CEM cells using the same procedure as described above. These assays also included toxicity and activity levels of both 25% and 50%.

HIV-1 protease = biological target: T1, HIV-1 protease (Human immunodeficiency virus type 1 group M subtype B, UniProt P04585); assay: HIV-1 protease inhibition assay (gag precursor maturation, Western blot); format: biochemical
T1 construct: a gene encoding the mature HIV-1 protease of 99 amino acids; last 58 codons of bovine growth hormone, fused behind the first 144 amino acids of reverse transcriptase in the expressed precursor (C); made in house; host or cells: Escherichia coli K12 L507/pHP10D (NRRL B-18560), crude lysate
Procedure: A 100 μl control reaction was established containing 10 to 20 μl of crude protease, about 2 μl of the gag supernatant and final concentrations of 50 mM MES Buffer (pH 5.5), 1 mM DTT and 25 mM NaCl. Inhibition assays were performed by pre-incubating the crude protease with an inhibitory compound at room temperature for about 30 minutes before adding the gag supernatant to the reaction. Both the control and the experimental reactions were incubated from three to sixteen hours at 37° C. The reactions were then electrophoresed and blotted onto nitrocellulose filters. Monoclonal antibodies which recognize epitopes on p24 and p17 viral proteins were contacted with the filter then visualized using standard biotinylation or radionuclear techniques. Compounds which prevented the maturation of the gag polypeptide into mature viral proteins p24 and p17 were then ranked according to their HIV-1 protease inhibitory activity.
About 10 to 20 μl of the crude protease lysate was mixed with about 2 μl of the gag supernatant. The mixture was then brought to a total volume of 100 μl by the addition of distilled water, MES buffer (2-[N-Morpholino]ethanesulfonic acid) (pH 5.5 to a total concentration of 50 mM), DTT (dithiolthreitol) (to a total concentration of 1 mM) and NaCl (to a total concentration of 25 mM). This reaction mixture was mixed gently then incubated from 3 hours to overnight at 37° C.
Next, about 25 μl of the reaction was mixed with loading buffer and subjected to polyacrylamide gel electrophoresis on a 12.5% Laemmli gel under reducing conditions. The proteins were transferred onto a nitrocellulose filter using standard "Western Blot" electrophoresis at 500 mAmps for 35 minutes at room temperature. The filter was air-dried, then non-specific immunoreaction was blocked by washing the filter for 30 minutes at 4° C. in a solution of 3% non-fat dry milk powder in phosphate buffered saline (PBS).
Monoclonal antibodies against p17 and/or p24 (available from DuPont, Wilmington, Del.) were added to about 40 ml of the 3% milk/PBS solution to a final concentration of 2 μg/ml. […] The filter then was removed and washed 5 times with PBS, then the maturation of the gag gene was determined by reaction with I^125 -labeled protein A or by reaction with biotinylated anti-mouse IgG antibodies (Vecta Stain®). […]
Following the procedure, it is simple to determine the activity of the HIV-1 protease encoded on plasmid pHP10D and produced in E. coli cells. When the protease is fully active, the gag protein, encoded by plasmid pHGAG and produced in E. coli, is cleaved from the precursor gag form into mature p24 and p17 proteins, which are readily measured by their presence relative to the precursor protein. […]

MT-2 cells = format: cell-based
Procedure: as §2, §3, §4
Reagents for colorimetric evaluation of cell viability were prepared by mixing the tetrazolium reagent, XTT, and phenazine methosulfate (PMS) to final concentrations of 200 μg/ml and 0.02 mM, respectively. […] The plates were read with the sealers in place in a Vmax Plate Reader® at 450 nm and 650 nm. The cytopathic effect (CPE) and percentage of cell viability were then calculated.

Compound: CC(C)CC(=O)N[C@H](C(=O)N[C@H](C(=O)N[C@@H](CC(C)C)[C@@H](O)CC(=O)N[C@@H](C)C(=O)N[C@@H](CC(C)C)[C@@H](O)CC(=O)O)C(C)C)C(C)C [Pepstatin A, Isovaline-Val-Val-Statine-Ala-Statine] (Isovaleryl-VV[Sta]A[Sta]-OH)
CPE inhibition score (Mo-MuLV; 1.56 μg/ml): - | CPE inhibition score (Mo-MuLV; 3.12 μg/ml): - | CPE inhibition score (Mo-MuLV; 6.25 μg/ml): - | CPE inhibition score (Mo-MuLV; 12.5 μg/ml): - | CPE inhibition score (Mo-MuLV; 25 μg/ml): - | CPE inhibition score (Mo-MuLV; 50 μg/ml): - | % Inhibition (virus yield) (MLV; 25 μg/ml): 52% | Yield (MLV; 25 μg/ml): 9.0 × 10^4 PFU/ML | % Inhibition (virus yield) (MLV; 50 μg/ml): 94% | Yield (MLV; 50 μg/ml, supernatants four days after infection): 1.2 × 10^4 PFU/ML

IC25 (Table V) (CEM cells): > 100 µg/mL
Compound: COc1ccc(C[C@H](NC(C)=O)C(=O)N2CCC[C@H]2C(=O)N[C@@H](Cc2ccccc2)C(=O)N[C@H](C(=O)N[C@@H](CC(C)C)[C@@H](O)CC(=O)N[C@@H](CC(C)C)C(=O)N[C@@H](Cc2ccccc2)C(N)=O)C(C)C)cc1 [P-9, Ac YOM Pro Phe Val Statine Leu Phe NH2] (Ac-Y(Me)PFV[Sta]LF-NH2)
TC50 (concentration that reduced cell viability by 50%) (CEM cells): > 100 µg/mL

Compound: H-Pro His Pro Phe His AVA Ile Phe NH2 [P-25]
Relative Inhibition of HIV-1 Protease Activity (10^-4 M) (HIV-1 protease; peptide concentration added 10^-4 M): - | Relative Inhibition of HIV-1 Protease Activity (10^-5 M) (HIV-1 protease; peptide concentration added 10^-5 M): - | Relative Inhibition of HIV-1 Protease Activity (10^-6 M) (HIV-1 protease; peptide concentration added 10^-6 M): -

Compound: CC(C)C[C@H](NC(=O)C[C@H](O)[C@H](CC(C)C)NC(=O)[C@@H](NC(=O)[C@H](Cc1ccccc1)NC(=O)[C@@H]1CCCN1C(=O)[C@H](Cc1ccc(N)cc1)NC(=O)[C@@H]1CCCN1)C(C)C)C(=O)N[C@@H](Cc1ccccc1)C(=O)N[C@@H](Cc1ccc(N)cc1)C(N)=O [P-1, H-Pro paF Pro Phe Val Statine Leu Phe paF NH2] (H-P[Phe(4-NH2)]PFV[Sta]LF[Phe(4-NH2)]-NH2)
MTC50 (minimum cytotoxic drug concentration that reduces cell viability to 50%) (CEM cells): > 100 µg/mL | MTC50 (minimum cytotoxic drug concentration that reduces cell viability to 50%) (MT-2 cells): > 100 µg/mL

IC25 (Table V) (CEM cells): > 10 µg/mL
Compound: CC(=O)N[C@@H](Cc1cccc2ccccc12)C(=O)N1CCC[C@H]1C(=O)N[C@@H](Cc1ccccc1)C(=O)N[C@H](C(=O)N[C@@H](CC(C)C)[C@@H](O)CC(=O)N[C@@H](CC(C)C)C(=O)N[C@@H](Cc1ccccc1)C(N)=O)C(C)C [P-7, Ac NA Pro Phe Val Statine Leu Phe NH2] (Ac-[1Nal]PFV[Sta]LF-NH2)
MTC50 (minimum cytotoxic drug concentration that reduces cell viability to 50%) (CEM cells): 21 µg/mL | TC50 (concentration that reduced cell viability by 50%) (CEM cells): > 10 µg/mL | MTC50 (minimum cytotoxic drug concentration that reduces cell viability to 50%) (MT-2 cells): 24.4 µg/mL

IC25 (Table V) (CEM cells): 49 µg/mL (≈ 48.7 µM)
Compound: CC(=O)N[C@@H](Cc1c[nH]c2ccccc12)C(=O)N1CCC[C@H]1C(=O)N[C@@H](Cc1ccccc1)C(=O)N[C@H](C(=O)N[C@@H](CC(C)C)[C@@H](O)CC(=O)N[C@@H](CC(C)C)C(=O)N[C@@H](Cc1ccccc1)C(N)=O)C(C)C [P-8, Ac Trp Pro Phe Val Statine Leu Phe NH2] (Ac-WPFV[Sta]LF-NH2)
TC50 (concentration that reduced cell viability by 50%) (CEM cells): 66 µg/mL (≈ 65.6 µM)

Compound: CC(=O)N[C@H](C(=O)N[C@@H](CC(C)C)[C@@H](O)CC(=O)N[C@@H](CC(C)C)C(=O)N[C@@H](Cc1ccccc1)C(N)=O)C(C)C [Ac-Val-Statine-Leu-Phe--NH2] (Ac-V[Sta]LF-NH2)
Inhibitory activity against the HIV protease (in words) (HIV-1 protease): inactive

IC25 (Table V) (CEM cells): 49 µg/mL (≈ 50.7 µM)
Compound: CC(=O)N[C@@H](Cc1ccccc1)C(=O)N1CCC[C@H]1C(=O)N[C@@H](Cc1ccccc1)C(=O)N[C@H](C(=O)N[C@@H](CC(C)C)[C@@H](O)CC(=O)N[C@@H](CC(C)C)C(=O)N[C@@H](Cc1ccccc1)C(N)=O)C(C)C [P-10, Ac Phe Pro Phe Val Statine Leu Phe NH2] (Ac-FPFV[Sta]LF-NH2)
TC50 (concentration that reduced cell viability by 50%) (CEM cells): 55 µg/mL (≈ 56.9 µM)

IC25 (Table V) (CEM cells): > 100 µg/mL
Compound: CC(=O)N[C@@H](Cc1ccc(O)cc1)C(=O)N1CCC[C@H]1C(=O)N[C@@H](Cc1ccccc1)C(=O)N[C@H](C(=O)N[C@@H](CC(C)C)[C@@H](O)CC(=O)N[C@@H](CC(C)C)C(=O)N[C@@H](Cc1ccccc1)C(N)=O)C(C)C [P-5, Ac Tyr Pro Phe Val Statine Leu Phe NH2] (Ac-YPFV[Sta]LF-NH2)
TC50 (concentration that reduced cell viability by 50%) (CEM cells): > 100 µg/mL
